One experiment deals with LjGpx3. Put plainly: NADPH oxidation at […] nm, thioredoxin-coupled, steady state. Format: biochemical, Lotus japonicus. To be noted: apparent Km, 20 μM poplar Trxh1, 1 μM A. thaliana NADPH-Trx reductase, 0.4 mM NADPH, 30 mM Tris-HCl pH 8.0, 1 mM EDTA.
The target of a further experiment is T1, LjGpx1 (Lotus japonicus, UniProt Q56VU1).
T1 sequence (Q56VU1 72-236): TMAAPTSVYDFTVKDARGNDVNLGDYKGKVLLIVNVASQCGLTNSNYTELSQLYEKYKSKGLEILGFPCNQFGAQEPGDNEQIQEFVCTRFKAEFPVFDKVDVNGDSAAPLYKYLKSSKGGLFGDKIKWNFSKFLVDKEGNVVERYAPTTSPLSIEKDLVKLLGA
Described as above. To be noted: apparent Km; 20 μM poplar Trxh1, 1 μM A. thaliana NADPH-Trx reductase, 0.4 mM NADPH, 30 mM Tris-HCl pH 8.0, 1 mM EDTA; acyl chains of lipid not defined. In kind it is biochemical.

In general, Km refers to the substrate concentration at which the rate is half of its maximum.

In the case of `CC(C)(C)OO` [t-Butyl hydroperoxide], the Km with LjGpx3 turned out to be 167 µM.

As for `CC(C)(OO)c1ccccc1` [Cumene hydroperoxide], the Michaelis-Menten constant (Km) with LjGpx3 was 214 µM.

For the compound Phosphatidylcholine hydroperoxide, the Km in the experiment on LjGpx3 (acyl chains of lipid not defined) and at LjGpx1 was 1.6 µM throughout.

The record behind these values is article PMC4423513, “Function of glutathione peroxidases in legume root nodules” (Journal of Experimental Botany, 2015).
